From patent US9963448B2, “Bicyclic inhibitors of PAD4” (Padlock Therapeutics, Inc., priority 2015, dated 2018) come the findings set out here.

This test addresses hPAD4 (Homo sapiens, UniProt Q9UM07). Briefly: hPAD4 RFMS (RapidFire mass spectrometry) PAD4 inhibition assay.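 For hPAD4 RFMS pIC50: grade E means pIC50 at most 4 and F means pIC50 4.0 to 5.0.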 It is filed as biochemical. The note with it: hPAD4 enzyme, RFMS readout. How it is done: Compounds of the present invention were assayed as inhibitors of PAD4 using the assay protocol described below.
Compound stock solutions were stored at RT. […] Final assay conditions were as follows:
Total incubation time: 65 mins at 37° C.
Stop solution: 40 μl 5% TCA in ACN
The compound numbers correspond to the compound numbers in Table 1. […] The term pIC50=−log(IC50). […] “NA” stands for “not assayed.”

The mark [1] stands for this setting: pIC50=−log(IC50), read-out: hPAD4 RFMS pIC50 (converted).

Like-named read-outs stand apart in the source and are kept apart here.

hPAD4, sequence (Q9UM07 whole entry): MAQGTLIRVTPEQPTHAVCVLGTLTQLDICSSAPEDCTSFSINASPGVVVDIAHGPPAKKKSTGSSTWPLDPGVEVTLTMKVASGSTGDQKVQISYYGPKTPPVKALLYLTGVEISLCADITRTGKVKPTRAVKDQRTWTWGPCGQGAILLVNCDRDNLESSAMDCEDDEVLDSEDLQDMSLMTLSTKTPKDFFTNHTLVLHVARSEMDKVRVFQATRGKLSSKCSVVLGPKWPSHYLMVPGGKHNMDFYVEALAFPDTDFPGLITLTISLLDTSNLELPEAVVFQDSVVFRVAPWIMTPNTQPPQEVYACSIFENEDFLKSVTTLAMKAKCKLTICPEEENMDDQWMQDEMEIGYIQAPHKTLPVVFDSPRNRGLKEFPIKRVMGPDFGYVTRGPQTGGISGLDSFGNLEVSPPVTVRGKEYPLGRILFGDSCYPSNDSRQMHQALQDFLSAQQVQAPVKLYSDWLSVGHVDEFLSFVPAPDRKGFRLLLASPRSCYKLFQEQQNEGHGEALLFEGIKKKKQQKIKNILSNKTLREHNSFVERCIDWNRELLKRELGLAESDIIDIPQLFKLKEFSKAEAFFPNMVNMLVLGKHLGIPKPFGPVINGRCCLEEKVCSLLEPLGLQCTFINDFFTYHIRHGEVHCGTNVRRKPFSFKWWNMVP

Regarding `COCCn1c(-c2nc3cc(C(=O)N4C[C@H](N)CC[C@@H]4C)cc(OC)c3n2C)cc2cccnc21` (racemic) [Compound I-170], the IC50 is 1 to 10 µM under setting [1] and 1 to 5 µM (read-out: hPAD4 RFMS IC50).
In the same order, the values of `CCn1c(-c2nc3cc(C(=O)N4CC[C@@H]5CCN[C@@H]5C4)cc(OC)c3n2C)cc2cccnc21` (single isomer, unassigned) [Compound I-3] are 1 to 10 µM and 1 to 5 µM.
The matching figures for `CCn1c(-c2nc3cc(C(=O)N4CC[C@H]5CCN[C@H]5C4)cc(OC)c3n2C)cc2cccnc21` (single isomer, unassigned) [Compound I-14]: 10 to 100 µM and > 10 µM.
As to `CCn1c(-c2nc3cc(C(=O)N4CC[C@H]5CCN[C@H]5C4)ccc3n2C)cc2cccnc21` [Compound I-1], the IC50 is 10 to 100 µM under setting [1] and > 10 µM (read-out: hPAD4 RFMS IC50).
In the same order, the values of `Cn1c(-c2cc3ccccc3n2CC2CC2)nc2cc(C(=O)N3CC[C@@H]4CCN[C@@H]4C3)ccc21` [Compound I-2] are 10 to 100 µM and > 10 µM.
The matching figures for `COc1cc(C(=O)N2CC[C@@H]3CCN[C@@H]3C2)cc2nc(-c3cc4cncnc4n3CC3CC3)n(C)c12` [Compound I-4, 5-[(3aS,7aS)-octahydro-1H-pyrrolo[2,3-c]pyridine-6-carbonyl]-2-[7-(cyclopropylmethyl)-7H-pyrrolo[2,3-d]pyrimidin-6-yl]-7-methoxy-1-methyl-1H-1,3-benzodiazole]: 10 to 100 µM and > 10 µM.
In the same order, the values of `CCn1c(-c2nc3cc(C(=O)N4CC[C@@H]5CCN[C@@H]5C4)ccc3n2C)cc2cccnc21` [Compound I-5] are 10 to 100 µM and > 10 µM.
For `Cn1c(-c2cc3cccnc3n2CC2CC2)nc2cc(C(=O)N3CCC4CCNC4C3)ccc21` (stereo not shown) [Compound I-6], the IC50 runs as follows: under setting [1], 1 to 10 µM; (read-out: hPAD4 RFMS IC50) 1 to 5 µM.
The matching figures for `Cn1c(-c2cc3ccccc3n2CC2CC2)nc2cc(C(=O)N3CC[C@H]4CCN[C@H]4C3)ccc21` [Compound I-7]: < 1 µM and < 1 µM.
The matching figures for `COc1cc(C(=O)N2CCC3CCNC3C2)cc2nc(-c3cc4cccnc4n3CC3CC3)n(C)c12` (stereo not shown) [Compound I-8]: < 1 µM and < 1 µM.
The matching figures for `CCn1c(-c2nc3cc(C(=O)N4CCC5CCNC5C4)cc(OC)c3n2C)cc2cccnc21` (stereo not shown) [Compound I-13, 2-{1-ethyl-1H-pyrrolo[2,3-b]pyridin-2-yl}-7-methoxy-1-methyl-5-{octahydro-1H-pyrrolo[2,3-c]pyridine-6-carbonyl}-1H-1,3-benzodiazole]: 1 to 10 µM and 1 to 5 µM.
On to `COc1cc(C(=O)N2CCC3CCNC3C2)cc2nc(-c3cc4cncnc4n3CC3CC3)n(C)c12` (stereo not shown) [Compound I-15, 2-[7-(cyclopropylmethyl)-7H-pyrrolo[2,3-d]pyrimidin-6-yl]-7-methoxy-1-methyl-5-{octahydro-1H-pyrrolo[2,3-c]pyridine-6-carbonyl}-1H-1,3-benzodiazole], for which the IC50 under setting [1] was 1 to 10 µM and the IC50 (read-out: hPAD4 RFMS IC50) was 5 to 10 µM.
The matching figures for `CCn1c(-c2nc3cc(C(=O)N4CCC5CCNC5C4)ccc3n2C)cc2cccnc21` (stereo not shown) [Compound I-16]: 1 to 10 µM and 5 to 10 µM.
On to `Cn1c(-c2cc3cccnc3n2CC2CC2)nc2cc(C(=O)N3CC4CC3CN4)ccc21` (stereo not shown) [Compound I-37], for which the IC50 by setting is: under setting [1], > 100 µM; (read-out: hPAD4 RFMS IC50) > 10 µM.
In the same order, the values of `Cn1c(-c2cc3cccnc3n2CC2CC2)nc2cc(C(=O)N3CC4CNC4C3)ccc21` (stereo not shown) [Compound I-38] are > 100 µM and > 10 µM.
In the same order, the values of `Cn1c(-c2cc3cccnc3n2CC2CC2)nc2cc(C(=O)N3CCC4(CCCN4)C3)ccc21` (stereo not shown) [Compound I-39] are 10 to 100 µM and > 10 µM.
In the same order, the values of `Cn1c(-c2cc3cccnc3n2CC2CC2)nc2cc(C(=O)N3CCC4CNC4C3)ccc21` (stereo not shown) [Compound I-40] are 10 to 100 µM and > 10 µM.
As to `Cn1c(-c2cc3cccnc3n2CC2CC2)nc2cc(C(=O)N3CCCC4(CCCN4)C3)ccc21` (stereo not shown) [Compound I-41], the IC50 by setting is: under setting [1], 10 to 100 µM; (read-out: hPAD4 RFMS IC50) > 10 µM.
In the case of `Cn1c(-c2cc3cccnc3n2CC2CC2)nc2cc(C(=O)N3CCCC4(CCN4)C3)ccc21` (stereo not shown) [Compound I-42], the IC50 under setting [1] is > 100 µM and the IC50 (read-out: hPAD4 RFMS IC50) is > 10 µM.
In the same order, the values of `Cn1c(-c2cc3cccnc3n2CC2CC2)nc2cc(C(=O)N3CCC[C@@H]4CNC[C@@H]43)ccc21` [Compound I-43] are > 100 µM and > 10 µM.
For the compound `Cn1c(-c2cc3cccnc3n2CC2CC2)nc2cc(C(=O)N3CCC[C@H]4CNC[C@H]43)ccc21` [Compound I-44], the IC50 was > 100 µM under setting [1] and > 10 µM (read-out: hPAD4 RFMS IC50).
The matching figures for `Cn1c(-c2cc3cccnc3n2CC2CC2)nc2cc(C(=O)N3CCCC4(CCCNC4)C3)ccc21` (stereo not shown) [Compound I-45]: > 100 µM and > 10 µM.
The matching figures for `Cn1c(-c2cc3cccnc3n2CC2CC2)nc2cc(C(=O)N3CCCC4(CCNC4)C3)ccc21` (stereo not shown) [Compound I-46]: > 100 µM and > 10 µM.
`Cn1c(-c2cc3cccnc3n2CC2CC2)nc2cc(C(=O)N3C4CCC3CC(N)C4)ccc21` (stereo not shown) [Compound I-47]: the IC50 runs as follows: under setting [1], > 100 µM; (read-out: hPAD4 RFMS IC50) > 10 µM.
With `Cn1c(-c2cc3cccnc3n2CC2CC2)nc2cc(C(=O)N3CCCC4(CCCCN4)C3)ccc21` (stereo not shown) [Compound I-48], the IC50 was 10 to 100 µM under setting [1] and > 10 µM (read-out: hPAD4 RFMS IC50).
In the same order, the values of `Cn1c(-c2cc3cccnc3n2CC2CC2)nc2cc(C(=O)N3CCC(F)C(N)C3)ccc21` (stereo not shown) [Compound I-49] are 1 to 10 µM and 5 to 10 µM.
Consider `Cn1c(-c2cc3cccnc3n2CC2CC2)nc2cc(C(=O)N3CC4CCC(C3)C4N)ccc21` (stereo not shown) [Compound I-50], for which the IC50 under setting [1] was > 100 µM and the IC50 (read-out: hPAD4 RFMS IC50) is > 10 µM.
The matching figures for `Cn1c(-c2cc3cccnc3n2CC2CC2)nc2cc(C(=O)N3CC(N)CC(F)(F)C3)ccc21` (stereo not shown) [Compound I-51]: 10 to 100 µM and > 10 µM.
As to `Cn1c(-c2cc3cccnc3n2CC2CC2)nc2cc(C(=O)N3CCCC4NCCCC43)ccc21` (stereo not shown) [Compound I-53], the IC50 is > 100 µM under setting [1] and > 10 µM (read-out: hPAD4 RFMS IC50).
The matching figures for `COc1cc(C(=O)N2CC[C@@H](F)[C@H](N)C2)cc2nc(-c3cc4cccnc4n3CC3CC3)n(C)c12` [Compound I-57]: 1 to 10 µM and 1 to 5 µM.
In the same order, the values of `COc1cc(C(=O)N2CC[C@H](F)[C@@H](N)C2)cc2nc(-c3cc4cccnc4n3CC3CC3)n(C)c12` [Compound I-58] are 10 to 100 µM and > 10 µM.
In the same order, the values of `Cn1c(-c2cc3cccnc3n2CC2CC2)nc2cc(C(=O)N3CCC[C@H]4NCC[C@H]43)ccc21` [Compound I-60] are 10 to 100 µM and > 10 µM.
For the compound `Cn1c(-c2cc3cccnc3n2CC2CC2)nc2cc(C(=O)N3CCC[C@@H]4NCC[C@@H]43)ccc21` [Compound I-61], the IC50 was > 100 µM under setting [1] and > 10 µM (read-out: hPAD4 RFMS IC50).
The matching figures for `Cn1c(-c2cc3cccnc3n2CC2CC2)nc2cc(C(=O)N3C4CCC(N)C3CC4)ccc21` (stereo not shown) [Compound I-63]: 10 to 100 µM and > 10 µM.
As for `Cn1c(-c2cc3cccnc3n2CC2CC2)nc2cc(C(=O)N3C[C@H](N)C[C@H](F)C3)ccc21` [Compound I-67], the IC50 under setting [1] was 10 to 100 µM and the IC50 (read-out: hPAD4 RFMS IC50) is > 10 µM.
In the same order, the values of `COc1cc(C(=O)N2C[C@H]3C[C@H](OC)[C@@H]2[C@@H]3N)cc2nc(-c3cc4cccnc4n3CC3CC3)n(C)c12` [Compound I-167, (1 S,4R,6S,7R)-2-{2-[1-(Cyclopropylmethyl)-1H-pyrrolo[2,3-b]pyridin-2-yl]-7-methoxy-1-methyl-1H-1,3-benzodiazole-5-carbonyl}-6-methoxy-2-azabicyclo[2.2.1]heptan-7-amine] are 1 to 10 µM and 1 to 5 µM.
Take `CCn1c(-c2nc3cc(C(=O)N4C[C@H]5CC[C@@H]4[C@@H]5N)cc(OC)c3n2C[C@H]2C[C@@](C)(OC)C2)cc2cccnc21` [Compound I-168]: the IC50 under setting [1] was < 1 µM and the IC50 (read-out: hPAD4 RFMS IC50) was < 1 µM.
As to `COCCn1c(-c2nc3cc(C(=O)N4C[C@H]5CC[C@@H]4[C@@H]5N)cc(OC)c3n2C)cc2cccnc21` [Compound I-169], the IC50 under setting [1] was < 1 µM and the IC50 (read-out: hPAD4 RFMS IC50) is < 1 µM.
On to `COc1ccc2cc(-c3nc4cc(C(=O)N5C[C@H](N)CC[C@@H]5C)ccc4n3C)n(CC3CC3)c2n1` [Compound I-352, ((2S,5R)-5-amino-2-methylpiperidin-1-yl)(2-(1-(cyclopropylmethyl)-6-methoxy-1H-pyrrolo[2,3-b]pyridin-2-yl)-1-methyl-1H-benzo[d]imidazol-5-yl)methanone], for which the IC50 was < 1 µM under setting [1] and < 1 µM (read-out: hPAD4 RFMS IC50).
With `COc1ccc2cc(-c3nc4cc(C(=O)N5C[C@H]6CC[C@@H]5[C@@H]6N)ccc4n3C)n(CC3CC3)c2n1` [Compound I-353, ((1R,4R,7R)-7-amino-2-azabicyclo[2.2.1]heptan-2-yl)(2-(1-(cyclopropylmethyl)-6-methoxy-1H-pyrrolo[2,3-b]pyridin-2-yl)-1-methyl-1H-benzo[d]imidazol-5-yl)methanone], the IC50 runs as follows: under setting [1], < 1 µM; (read-out: hPAD4 RFMS IC50) < 1 µM.
Consider `COc1ccc2cc(-c3nc4cc(C(=O)N5C[C@@H](N)C[C@H](F)C5)ccc4n3C)n(CC3CC3)c2n1` [Compound I-354, ((3S,5S)-3-amino-5-fluoropiperidin-1-yl)(2-(1-(cyclopropylmethyl)-6-methoxy-1H-pyrrolo[2,3-b]pyridin-2-yl)-1-methyl-1H-benzo[d]imidazol-5-yl)methanone], for which the IC50 runs as follows: under setting [1], < 1 µM; (read-out: hPAD4 RFMS IC50) < 1 µM.
